# Patent US20230233569A1 (Revolution Medicines, Inc., priority 2020, published 2023)
# “And” between values parts separate entries of the source, which are not always exact repeats. Equal values may be shown once. Read-outs that look alike come from different tables or passages of the source.
# Legend:
# Assay in all cases: Disruption of BRAF RBD interaction with Ras (FRET / MOA assay, with Cyclophilin A)
# Format in all cases: biochemical
# KRAS G13C = KRAS G13C (Homo sapiens, UniProt P01116+P62937, G13C)
# Source text: (§1) This protocol may also be executed substituting other Ras proteins or nucleotides.
# (§2) The purpose of this biochemical assay was to measure the ability of test compounds to facilitate ternary complex formation between a nucleotide-loaded K-Ras isoform and Cyclophilin A; the resulting ternary complex disrupts binding to a BRAF^RBD construct, inhibiting K-Ras signaling through a RAF effector. Data is reported as IC50 values.
# (§3) Compound was present in plate wells as a 10-point 3-fold dilution series starting at a final concentration of 30 μM. After incubation at 25° C. for 3 hours, a mixture of Anti-His Eu-W1024 and anti-GST allophycocyanin was then added to assay sample wells at final concentrations of 10 nM and 50 nM, respectively, and the reaction incubated for an additional 1.5 hours. […] Compounds that facilitate disruption of a K-Ras:RAF complex were identified as those eliciting a decrease in the TR-FRET ratio relative to DMSO control wells.
# as §2, with “BRAF^RBDD” for “BRAF^RBD”
# KRAS WT = KRAS WT (Homo sapiens, UniProt P01116+P62937)
# Source text: as §1, §2, §3
# as §2, with “BRAF^RBDD” for “BRAF^RBD”
# NRAS G12C = NRAS G12C (Homo sapiens, UniProt P01111+P62937, G12C); settings: NRAS G12C; read-out: NRAS G12C FRET data IC50
# Source text: as §1, §2, §3
# as §2, with “BRAF^RBDD” for “BRAF^RBD”
# KRAS G12V = KRAS G12V (Homo sapiens, UniProt P01116+P62937, G12V)
# Source text: as §1, §2, §3
# as §2, with “BRAF^RBDD” for “BRAF^RBD”
# KRAS G12C = KRAS G12C (Homo sapiens, UniProt P01116+P62937, G12C)
# Source text: as §1, §2, §3
# as §2, with “BRAF^RBDD” for “BRAF^RBD”
# KRAS G12D = KRAS G12D (Homo sapiens, UniProt P01116+P62937, G12D)
# Source text: as §1, §2, §3
# as §2, with “BRAF^RBDD” for “BRAF^RBD”
# KRAS G12S = KRAS G12S (Homo sapiens, UniProt P01116+P62937, G12S)
# Source text: as §1, §2, §3
# as §2, with “BRAF^RBDD” for “BRAF^RBD”
# [1] = read-out: KRAS G13C FRET data, IC50
# [2] = KRAS WT, read-out: KRAS WT FRET data IC50
# [3] = KRAS G12V, read-out: KRAS G12V FRET data IC50
# [4] = KRAS G12C, read-out: KRAS G12C FRET data IC50
# [5] = read-out: KRAS G12D FRET data, IC50
# [6] = KRAS G13C, read-out: KRAS G13C FRET data IC50
# [7] = read-out: KRAS G12S FRET data, IC50
# KRAS G12S, sequence (P01116 1-169 isoform P01116-2 G12S limits assumed): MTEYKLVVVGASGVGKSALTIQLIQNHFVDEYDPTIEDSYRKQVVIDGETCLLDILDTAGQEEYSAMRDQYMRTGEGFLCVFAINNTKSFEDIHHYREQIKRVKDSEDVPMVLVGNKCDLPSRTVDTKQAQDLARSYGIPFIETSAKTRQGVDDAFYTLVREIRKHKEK
# KRAS G12S, sequence (P62937 whole entry): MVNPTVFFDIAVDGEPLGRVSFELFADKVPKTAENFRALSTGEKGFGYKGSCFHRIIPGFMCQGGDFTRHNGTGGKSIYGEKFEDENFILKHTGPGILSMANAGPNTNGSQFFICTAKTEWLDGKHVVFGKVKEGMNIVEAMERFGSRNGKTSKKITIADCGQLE
# KRAS WT, sequence (P01116 1-169 isoform P01116-2 limits assumed): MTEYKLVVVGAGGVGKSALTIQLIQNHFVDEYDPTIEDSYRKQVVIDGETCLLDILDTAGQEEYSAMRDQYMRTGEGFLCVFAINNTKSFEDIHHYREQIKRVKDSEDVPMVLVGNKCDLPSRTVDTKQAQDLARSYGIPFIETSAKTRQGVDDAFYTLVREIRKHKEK
# KRAS WT, sequence (P62937 whole entry): as the sequence (P62937 whole entry) above
# KRAS G13C, sequence (P01116 1-169 isoform P01116-2 G13C): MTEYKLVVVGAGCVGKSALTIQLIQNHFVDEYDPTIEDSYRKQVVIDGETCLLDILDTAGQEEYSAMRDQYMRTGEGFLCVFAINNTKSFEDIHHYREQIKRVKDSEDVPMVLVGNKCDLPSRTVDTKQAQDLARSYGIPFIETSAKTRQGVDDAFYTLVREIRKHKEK
# KRAS G13C, sequence (P62937 whole entry): as the sequence (P62937 whole entry) above
# KRAS G12C, sequence (P01116 1-169 isoform P01116-2 G12C): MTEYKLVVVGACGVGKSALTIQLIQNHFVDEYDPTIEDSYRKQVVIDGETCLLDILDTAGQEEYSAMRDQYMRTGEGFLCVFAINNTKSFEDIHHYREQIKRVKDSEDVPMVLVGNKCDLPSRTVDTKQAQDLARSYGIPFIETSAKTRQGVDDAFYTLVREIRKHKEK
# KRAS G12C, sequence (P62937 whole entry): as the sequence (P62937 whole entry) above
# NRAS G12C, sequence (P01111 whole entry G12C): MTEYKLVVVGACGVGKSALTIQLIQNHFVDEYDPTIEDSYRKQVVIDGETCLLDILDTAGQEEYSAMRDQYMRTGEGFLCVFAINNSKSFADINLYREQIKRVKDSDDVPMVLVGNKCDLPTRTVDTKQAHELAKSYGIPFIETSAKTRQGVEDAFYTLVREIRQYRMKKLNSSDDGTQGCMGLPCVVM
# NRAS G12C, sequence (P62937 whole entry): as the sequence (P62937 whole entry) above
# KRAS G12D, sequence (P01116 1-169 isoform P01116-2 G12D limits assumed): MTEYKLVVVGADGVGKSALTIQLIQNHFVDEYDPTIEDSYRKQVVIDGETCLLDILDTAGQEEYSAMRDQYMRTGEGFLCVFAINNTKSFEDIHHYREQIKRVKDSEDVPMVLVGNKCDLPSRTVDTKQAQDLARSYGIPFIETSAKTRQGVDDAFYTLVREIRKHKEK
# KRAS G12D, sequence (P62937 whole entry): as the sequence (P62937 whole entry) above
# KRAS G12V, sequence (P01116 1-169 isoform P01116-2 G12V limits assumed): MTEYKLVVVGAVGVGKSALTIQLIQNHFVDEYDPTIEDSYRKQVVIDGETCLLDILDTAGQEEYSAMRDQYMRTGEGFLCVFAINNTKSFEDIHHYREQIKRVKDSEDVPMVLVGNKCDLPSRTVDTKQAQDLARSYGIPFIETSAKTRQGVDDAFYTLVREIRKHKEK
# KRAS G12V, sequence (P62937 whole entry): as the sequence (P62937 whole entry) above
SMILES,IC50 (KRAS G13C; [1]),IC50 (KRAS WT; [2]),IC50 (NRAS G12C),IC50 (KRAS G12V; [3]),IC50 (KRAS G12C; [4]),IC50 (KRAS G12D; [5]),IC50 (KRAS G13C; [6]),IC50 (KRAS G12S; [7]),"IC50 (KRAS G12V; KRAS G12V FRET data IC50, KRAS G12V)","IC50 (KRAS G13C; KRAS G13C FRET data IC50, KRAS G13C)","IC50 (KRAS G12C; KRAS G12C FRET data IC50, KRAS G12C)","IC50 (KRAS G12D; KRAS G12D FRET data, IC50)","IC50 (KRAS WT; KRAS WT FRET data IC50, KRAS WT)","IC50 (KRAS G12S; KRAS G12S FRET data, IC50)"
CCn1c(-c2cccnc2[C@H](C)OC)c2c3cc(ccc31)-c1cc(O)cc(c1)C[C@H](NS(=O)(=O)CC1CC1)C(=O)N1CCC[C@H](N1)C(=O)OCC(C)(C)C2 [Example A200],> 10 µM,> 10 µM,> 10 µM,,,,,,,,,,,
C=CC(=O)N1CC(OC[C@H](C(=O)N[C@H]2Cc3cccc(c3)-c3ccc4c(c3)c(c(-c3cccnc3[C@H](C)OC)n4CC)CC(C)(C)COC(=O)[C@@H]3CCCN(N3)C2=O)C(C)C)C1 (racemic) [Example A484],,> 10 µM,1 to 10 µM,> 10 µM,,,,,,,,,,
CCn1c(-c2cccnc2COC)c2c3cc(ccc31)-c1cc(O)cc(c1)C[C@H](NC(=O)[C@H](C(C)C)N(C)C(=O)[C@H]1CCN(C(=O)C#CCN3CCOCC3)C1)C(=O)N1CCC[C@H](N1)C(=O)OCC(C)(C)C2 [Example A095],,,< 0.01 µM,,< 0.01 µM,> 10 µM,,,,,,,,
C=CC(=O)N1CC[C@H](C(=O)N(C)[C@H](C(=O)N[C@H]2Cc3cc(OC(=O)CCC(=O)O)cc(c3)-c3ccc4c(c3)c(c(-c3ccccc3CCOC)n4CC)CC(C)(C)COC(=O)[C@@H]3CCCN(N3)C2=O)C(C)C)C1 [Example A032],,1 to 10 µM and > 10 µM,,1 to 10 µM and > 10 µM,0.01 to 0.1 µM and 1 to 10 µM,> 10 µM,1 to 10 µM and > 10 µM,0.1 to 1 µM and > 10 µM,,,,,,
C=CC(=O)N1CC[C@H](C(=O)N(C)[C@H](C(=O)N[C@H]2Cc3cc(OC(=O)NCC(=O)O)cc(c3)-c3ccc4c(c3)c(c(-c3ccccc3CCOC)n4CC)CC(C)(C)COC(=O)[C@@H]3CCCN(N3)C2=O)C(C)C)C1 [Example A036],,,,,,,,,1 to 10 µM and > 10 µM,0.1 to 1 µM and > 10 µM,1 to 10 µM and > 10 µM,> 10 µM,1 to 10 µM and > 10 µM,1 to 10 µM and > 10 µM
C=CC(=O)N1CC[C@H](C(=O)N(C)[C@H](C(=O)N[C@H]2Cc3cc(O)cc(c3)-c3ccc4c(c3)c(c(-c3ccc(CN(C)C)cc3)n4CC)CC(C)(C)COC(=O)[C@@H]3CCCN(N3)C2=O)C(C)C)C1 [Example A003],,> 10 µM,,1 to 10 µM,0.1 to 1 µM,> 10 µM,1 to 10 µM,1 to 10 µM,,,,,,
CCn1c(-c2ccccc2CN(C)C)c2c3cc(ccc31)-c1cc(O)cc(c1)C[C@H](NC(=O)[C@H](C(C)C)N(C)C(=O)c1ccc(NC(=O)/C=C/CN(C)C)cn1)C(=O)N1CCC[C@H](N1)C(=O)OCC(C)(C)C2 [Example A046],,> 10 µM,,1 to 10 µM,0.1 to 1 µM,1 to 10 µM,0.01 to 0.1 µM,> 10 µM,,,,,,
"C=CC(=O)N1CC[C@]2(COCCN2C(=O)N(C)[C@H](C(=O)N[C@H]2Cc3nc(cs3)-c3ccc4c(c3)c(c(-c3cccnc3[C@H](C)OC)n4CC)CC(C)(C)COC(=O)[C@@H]3CCCN(N3)C2=O)C(C)C)C1 (atropisomer, axis not shown) [Example A677]",,,0.1 to 1 µM,,,,,,,,,,,
C=CC(=O)N1CC[C@H](C(=O)N(C)[C@H](C(=O)N[C@H]2Cc3cc(cc(O)c3F)-c3ccc4c(c3)c(c(-c3ccccc3CCOC)n4CC)CC(C)(C)COC(=O)[C@@H]3CCCN(N3)C2=O)C(C)C)C1 [Example A009],,> 10 µM,,> 10 µM,1 to 10 µM,> 10 µM,> 10 µM,> 10 µM,,,,,,
C=CC(=O)N1CC[C@H](C(=O)N(C)[C@H](C(=O)N[C@H]2Cc3cc(O)cc(c3)-c3ccc4c(c3)c(c(C3=C(COC)COCC3)n4CC)CC(C)(C)COC(=O)[C@@H]3CCCN(N3)C2=O)C(C)C)C1 [Example A058],,1 to 10 µM,,0.1 to 1 µM,0.01 to 0.1 µM,1 to 10 µM,1 to 10 µM,0.1 to 1 µM,,,,,,
CCn1c(-c2cccnc2[C@H](C)OC)c2c3cc(ccc31)-c1cc(O)cc(c1)C[C@H](NS(=O)(=O)c1cn(C)c(C)n1)C(=O)N1CCC[C@H](N1)C(=O)OCC(C)(C)C2 [Example A197],> 10 µM,> 10 µM,> 10 µM,,,,,,,,,,,

# Now from value to compound, other results behind:
IC50 (KRAS G13C; [1]),IC50 (KRAS WT; [2]),IC50 (NRAS G12C),IC50 (KRAS G12V; [3]),IC50 (KRAS G12C; [4]),IC50 (KRAS G12D; [5]),IC50 (KRAS G13C; [6]),IC50 (KRAS G12S; [7]),SMILES,"IC50 (KRAS G12V; KRAS G12V FRET data IC50, KRAS G12V)","IC50 (KRAS G13C; KRAS G13C FRET data IC50, KRAS G13C)","IC50 (KRAS G12C; KRAS G12C FRET data IC50, KRAS G12C)","IC50 (KRAS G12D; KRAS G12D FRET data, IC50)","IC50 (KRAS WT; KRAS WT FRET data IC50, KRAS WT)","IC50 (KRAS G12S; KRAS G12S FRET data, IC50)"
,0.1 to 1 µM,,0.1 to 1 µM,0.01 to 0.1 µM,1 to 10 µM,0.1 to 1 µM,0.1 to 1 µM,C=CC(=O)N1CC[C@H](C(=O)N(C)[C@H](C(=O)N[C@H]2Cc3cc(O)cc(c3)-c3ccc4c(c3)c(c(-c3ccncc3COC)n4CC)CC(C)(C)COC(=O)[C@@H]3CCCN(N3)C2=O)C(C)C)C1 [Example A091],,,,,,
,1 to 10 µM,,1 to 10 µM,0.01 to 0.1 µM,> 10 µM,0.01 to 0.1 µM,1 to 10 µM,C=CC(=O)N1CC2(CCN([C@H](C(=O)N[C@H]3Cc4cc(O)cc(c4)-c4ccc5c(c4)c(c(-c4ccccc4CCOC)n5CC)CC(C)(C)COC(=O)[C@@H]4CCCN(N4)C3=O)C(C)C)C2=O)C1 [Example A031],,,,,,
,0.1 to 1 µM,,0.1 to 1 µM,< 0.01 µM,1 to 10 µM,< 0.01 µM,0.1 to 1 µM,CCn1c(-c2cccnc2COC)c2c3cc(ccc31)-c1cc(O)cc(c1)C[C@H](NC(=O)[C@H](C(C)C)N(C)C(=O)C1CN(C(=O)C#CCN(C)C)C1)C(=O)N1CCC[C@H](N1)C(=O)OCC(C)(C)C2 [Example A097],,,,,,
,0.1 to 1 µM,,0.1 to 1 µM,0.01 to 0.1 µM,1 to 10 µM,0.1 to 1 µM,0.1 to 1 µM,C=CC(=O)N1CC[C@H](C(=O)N(C)[C@H](C(=O)N[C@H]2Cc3cc(O)cc(c3)-c3ccc4c(c3)c(c(-c3ccccc3[C@@H](C)OC)n4CC)CC(C)(C)COC(=O)[C@@H]3CCCN(N3)C2=O)C(C)C)C1 [Example A029],,,,,,
,1 to 10 µM,,1 to 10 µM,0.1 to 1 µM,> 10 µM,0.1 to 1 µM,1 to 10 µM,C=CC(=O)N1CCN(C(=O)N(C)[C@H](C(=O)N[C@H]2Cc3cc(O)cc(c3)-c3ccc4c(c3)c(c(-c3ccccc3CCOC)n4CC)CC(C)(C)COC(=O)[C@@H]3CCCN(N3)C2=O)C(C)C)CC1 [Example A018],,,,,,
,1 to 10 µM,,> 10 µM,0.1 to 1 µM,> 10 µM,1 to 10 µM,1 to 10 µM,C=CC(=O)N1CCC(C(=O)N(C)[C@H](C(=O)N[C@H]2Cc3cc(O)cc(c3)-c3ccc4c(c3)c(c(-c3ccccc3CCOC)n4CC)CC(C)(C)COC(=O)[C@@H]3CCCN(N3)C2=O)C(C)C)CC1 [Example A014],,,,,,
,1 to 10 µM,,1 to 10 µM,0.1 to 1 µM,> 10 µM,1 to 10 µM,1 to 10 µM,C=CC(=O)N1CC[C@H](C(=O)N(C)[C@H](C(=O)N[C@H]2Cc3cc(O)cc(c3)-c3ccc4c(c3)c(c(-c3cncc(CN(C)C)c3)n4CC)CC(C)(C)COC(=O)[C@@H]3CCCN(N3)C2=O)C(C)C)C1 [Example A073],,,,,,
,1 to 10 µM,,0.1 to 1 µM,0.1 to 1 µM,> 10 µM,1 to 10 µM,0.1 to 1 µM,C=CC(=O)N1C[C@H](C)[C@H](C(=O)N(C)[C@H](C(=O)N[C@H]2Cc3cc(O)cc(c3)-c3ccc4c(c3)c(c(-c3ccccc3CCOC)n4CC)CC(C)(C)COC(=O)[C@@H]3CCCN(N3)C2=O)C(C)C)C1 [Example A041],,,,,,
,0.1 to 1 µM,,0.1 to 1 µM,0.01 to 0.1 µM,1 to 10 µM,0.1 to 1 µM,0.1 to 1 µM,C=CC(=O)N1C[C@H](C)[C@H](C(=O)N(C)[C@H](C(=O)N[C@H]2Cc3cc(O)cc(c3)-c3ccc4c(c3)c(c(-c3ccccc3CN(C)C)n4CC)CC(C)(C)COC(=O)[C@@H]3CCCN(N3)C2=O)C(C)C)C1 [Example A052],,,,,,
,1 to 10 µM,,0.1 to 1 µM,0.01 to 0.1 µM,1 to 10 µM,1 to 10 µM,0.1 to 1 µM,C=CC(=O)N1CC[C@H](C(=O)N(C)[C@H](C(=O)N[C@H]2Cc3cc(O)cc(c3)-c3ccc4c(c3)c(c(-c3ccc(CN(C)C)cc3COC)n4CC)CC(C)(C)COC(=O)[C@@H]3CCCN(N3)C2=O)C(C)C)C1 [Example A051],,,,,,
,1 to 10 µM,,1 to 10 µM,0.1 to 1 µM,> 10 µM,1 to 10 µM,1 to 10 µM,C=CC(=O)N1CC[C@H](C(=O)N(C)[C@H](C(=O)N[C@H]2Cc3cc(O)cc(c3)-c3ccc4c(c3)c(c(-c3cncc(CCN(C)C)c3)n4CC)CC(C)(C)COC(=O)[C@@H]3CCCN(N3)C2=O)C(C)C)C1 [Example A081],,,,,,
